The values that follow come from PubChem BioAssay AID1902 (Broad Institute, 2009).

As a reminder, the EC50 is the midpoint of the concentration-response curve.

This assay concerns the target S. pyogenes SKKanGAS, kanamycin survival, BacTiterGlo, 6 h. Put plainly: SKKanGAS survival reduction under kanamycin, dose response, streptokinase promoter inhibitor project, SKKanGAS strain, luminescence, dose confirmation (AID 1902).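 Note: lower survival reflects blocked streptokinase promoter driving kanamycin resistance gene.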

The source made the active and inactive calls.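 Rule for the calls: active = EC50 no more than a set limit of log units above the highest dose; inactive = the rest.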 A value given as a limit tells only on which side of the number the result lay.

As for `O=C(Nc1cc([N+](=O)[O-])ccc1O)c1cccc(NC(=O)c2ccco2)c1`, the EC50 was 2.78 µM.

`C[C@H]1COc2c(C3(N)CC3)c(F)cc3c(=O)c(C(=O)O)cn1c23`: the concentration giving a half-maximal response (EC50) is 6.2 µM.

As to `CC[C@@H](C)[C@H](CNC)NC[C@@H](Cc1cccc2ccccc12)NCCc1cccc(C(F)(F)F)c1`, the EC50 is 2.44 µM.

Take `Oc1c(C(c2ccccn2)N2CCCCC2)cc(Cl)c2cccnc12` (centres undefined): the EC50 was 8.88 µM.

Take `Cc1cc(S(=O)(=O)NCCC2=CCCCC2)ccc1Br`: the EC50 was 5.43 µM.

Consider `COc1cc(C)ccc1OCCCOc1ccccc1Br`, for which the EC50 is 5.9 µM.

For the compound `FC(F)(F)c1cc(-c2ccco2)nc(NCc2ccc(Cl)cc2)n1`, the EC50 was 7.1 µM.

`CC1(C)CC(=O)C(C2C3=C(CC(C)(C)CC3=O)Oc3c(Br)cc(Br)cc32)=C(O)C1` (centres undefined): the EC50 is 4.06 µM.

As to `Cc1cccc(NCc2nc3ccccc3n2Cc2ccccc2)c1`, the EC50 was 2.75 µM.

With `Cc1oc2c(c1C(=O)NCc1cccnc1)C(=O)c1ccccc1C2=O`, the EC50 is 0.882 µM.

Take `Cc1ccc(CNC(=O)c2ccc([N+](=O)[O-])o2)cc1`: the EC50 is 4.67 µM.

Take `O=c1/c(=C\c2cccc(O)c2)sc2nc(-c3ccccc3)c(-c3ccccc3)n12`: the EC50 was 7.63 µM.

For the compound `Oc1cccc2ccc(/C=C/c3cccs3)nc12`, the EC50 is 2.91 µM.

As for `COc1ccc(NC(=O)C(OC(=O)c2cnc(C)cn2)c2ccccc2)cc1Cl` (centres undefined), the half-maximal effective concentration (EC50) was 11.7 µM.

With `CCOC(=O)c1cc(-c2cccs2)nc2c1c(C)nn2-c1ccccn1`, the EC50 is 2.64 µM.

In the case of `Cc1ccc2c(Cl)cc(Cl)c(OCC(=O)NC(C)(C)C)c2n1`, the concentration for a half-maximal effect (EC50) is 3.14 µM.

For the compound `CCN(CC)c1ccc(C=N/C(C#N)=C(\N)C#N)cc1`, the EC50 was > 15 µM (inactive).

With `Cc1ccc(C(=O)N/N=C/c2cc(Br)ccc2O)cn1`, the 50% effective concentration (EC50) was 2.48 µM.

On to `COc1cccc(CNCC(O)(c2ccc(Cl)cc2)c2ccc(Cl)cc2)c1`, for which the 50% effective concentration (EC50) is 3.7 µM.

Turning to `O=C(N/N=C/c1cc([N+](=O)[O-])ccc1O)c1cc(-c2ccccc2)nc2ccccc12`, the EC50 was 0.603 µM.

Regarding `CC(/C=C1\SC(=S)N(CCCC(=O)Nc2ccc(C(=O)O)cc2)C1=O)=C\c1ccccc1`, the EC50 is 0.19 µM.

Consider `CCn1c(=S)sc2c(=O)[nH]c(SCC(=O)Nc3cc(OC)ccc3OC)nc21`, for which the EC50 was 6.58 µM.

For the compound `O=C1N/C(=N\N=C\c2cccnc2)SC1Cc1ccc(SC(F)F)cc1` (centres undefined), the EC50 is 3.08 µM.

Take `CCC(NC(=O)Nc1nnc(C(F)(F)F)s1)(C(F)(F)F)C(F)(F)F`: the half-maximal effective concentration (EC50) was 1.42 µM.

Take `CC(C)=CCCC1(C)C=Cc2c(ccc3c2[nH]c2cc(O)c(C)cc23)O1` (centres undefined): the EC50 was 3.04 µM.

In the case of `COc1ccc(/C=C/C(=O)NC(=S)NNC(=O)c2ccco2)cc1OC`, the EC50 was 4.08 µM.

Regarding `COc1ccc2cc3c(N)nn(C(=O)C4CCC(C(C)(C)C)CC4)c3nc2c1` (centres undefined), the EC50 is 1.95 µM.

Take `Oc1c(Cl)cc(Cl)c2c1NCCC2`: the EC50 is 5.37 µM.

On to `CCOc1ccc(C(=O)NC(=S)Nc2ccc(NC(=O)CC)cc2)cc1[N+](=O)[O-]`, for which the EC50 is 4.35 µM.

Consider `Cc1ccc(NC(=O)c2cc(N3C(=O)C=CC3=O)ccc2N2CCOCC2)cc1Cl`, for which the EC50 was 11.5 µM.

`Cc1ccc(Nc2cc(C)nn2-c2nc(C)cc(C)n2)cc1`: the EC50 was 6.47 µM.

Regarding `Cc1ccc(C(C)C)cc1NC(=O)Nc1ccc([N+](=O)[O-])cc1`, the EC50 was 3.75 µM.

For the compound `CCn1cc(CN2CCC(n3nccc3NC(=O)Cc3ccccc3)CC2)cn1`, the EC50 is > 15 µM (inactive).

Take `CC(C)=CCc1c(O)cc2oc3c(CC=C(C)C)c(O)c(O)c(CC=C(C)C)c3c(=O)c2c1O`: the EC50 was 0.828 µM.

Turning to `Cn1cccc1C(=O)Nc1nc(-c2ccccn2)cs1`, the EC50 is 12.4 µM.

Consider `COc1cc(/C=C/c2ccc3cccc(O)c3n2)cc(OC)c1OC`, for which the half-maximal effective concentration (EC50) is 3.66 µM.

Regarding `Cc1nc(-c2ccccn2)nc(SCC(=O)c2ccccc2)c1Cl`, the EC50 is 0.811 µM.

As to `Nc1nc(NCc2ccco2)nc(N2CCCCCC2)c1[N+](=O)[O-]`, the EC50 is 4.09 µM.

For the compound `CC(C)(C)Nc1nc(-c2ccccn2)nc2ccccc12`, the EC50 was 0.215 µM.

Take `Cc1cccc(C)c1OC(=O)C(c1ccccc1)c1ccccc1`: the EC50 is 3.17 µM.

With `COc1cc(C(=O)NNC(=S)NC(=O)c2ccc3c(c2)OCO3)cc(OC)c1OC`, the EC50 is 1.63 µM.

Take `O=C(Nc1cccc(C(F)(F)F)c1)Oc1ccc(Cl)c2cccnc12`: the concentration giving a half-maximal response (EC50) was 1.94 µM.

As for `CC(C)c1nc(N2CCCC2)c(C#N)c2c1CCCC2`, the EC50 is 4.1 µM.

Take `CS(=O)(=O)Nc1ccc(C2=NN(C(=O)C3CCCCC3)C(c3cccs3)C2)cc1` (centres undefined): the EC50 is 3.94 µM.

`CCOC(=O)C1=C(N)Oc2ccc3ccccc3c2C1c1ccc(O)cc1` (centres undefined): the EC50 was 5.68 µM.

Consider `COc1ccccc1Sc1nc(-c2ccccn2)ncc1OC`, for which the concentration giving a half-maximal response (EC50) is 14.7 µM.

Consider `CC(/C=C1\SC(=S)N(NS(=O)(=O)c2ccc(C)cc2)C1=O)=C\c1ccccc1`, for which the EC50 was 2.88 µM.

As to `CC(=O)c1cccc(OC(=O)c2ccc3c(=O)n4c(nc3c2)CCC4)c1`, the EC50 was 13.7 µM.

Regarding `CCSc1nnc(NC(=O)c2ccccn2)s1`, the EC50 was 4 µM.

Take `CN1C(=O)/C(=C/c2ccccc2F)Sc2ccc(C(=O)NCC3CCCO3)cc21` (centres undefined): the 50% effective concentration (EC50) is 1.53 µM.

As to `Cc1cccc(Oc2nc(-c3ccncc3)nc3ccccc23)c1`, the EC50 was 8.04 µM.

As for `N#Cc1ccccc1CN1C(=O)S/C(=C/c2cccn2-c2ccc(C(=O)O)cc2)C1=O`, the EC50 is 7.03 µM.

For `NS(=O)(=O)c1ccc(N/N=C2/CCCCC2C2CCCCC2)c([N+](=O)[O-])c1` (centres undefined), the EC50 is 3.11 µM.

With `CN(C)[C@@H]1C(=O)C(C(N)=O)=C(O)[C@@]2(O)C(=O)C3=C(O)c4c(O)cccc4[C@@](C)(O)C3[C@H](O)C12` (some centres undefined), the EC50 was 0.095 µM.

On to `COc1ccc(Cl)cc1/C=C/c1ccc2cccc(O)c2n1`, for which the EC50 is 0.388 µM.

For the compound `O=C(CCc1ccccc1)Nc1nnc(-c2ccc3c(c2)CCCC3)o1`, the EC50 is 1.59 µM.

Regarding `CN1CCN(C2Cc3ccc(Cl)cc3Sc3ccc(F)cc32)CC1` (centres undefined), the EC50 was 6.47 µM.

`N#Cc1c(Nc2cccc(F)c2)sc2c(O)cc(=O)[nH]c12`: the half-maximal effective concentration (EC50) was 0.861 µM.

In the case of `CCOc1ccc(-n2c(C)cc(/C=C3/C(=N)N4C(=NC3=O)SN=C4S(C)(=O)=O)c2C)cc1`, the EC50 is 0.938 µM.

In the case of `O=C(Nc1cc(Cl)cc(Cl)c1)Nc1cnccn1`, the EC50 is 4.85 µM.

Turning to `CCCn1c(=O)c(C(=O)N/N=C/c2ccc(F)cc2)c(O)c2ccccc21`, the EC50 is 3.19 µM.

`Fc1ccc(-n2cc(-c3ccccc3)c3c(=S)nc[nH]c32)cc1`: the EC50 is 8.7 µM.

In the case of `CCC(=O)N1N=C(c2c(O)n(C)c(=O)n(C)c2=O)CC1c1ccccc1` (centres undefined), the 50% effective concentration (EC50) is 2.42 µM.

Regarding `Cc1nnc(-c2cccc(Br)c2)c2cn(-c3ccc(Br)cc3)nc12`, the EC50 was 3.07 µM.

With `CC(C)COc1ccc(-c2nn(-c3ccccc3)cc2/C=C2/SC(=S)N(CC(=O)O)C2=O)cc1`, the EC50 is 2.18 µM.

`COc1cc2c(C#N)c(N3CCN(c4ccccc4OC)CC3)nc(N)c2c(N)n1`: the EC50 was 4.67 µM.

On to `COc1ccccc1N=C1NC(=O)/C(=C/c2ccc(N(C)C)cc2)S1`, for which the EC50 is 6.08 µM.

In the case of `COc1ccccc1OCCCn1c(C)c(C#N)c2ccccc21`, the EC50 was 7.08 µM.

Turning to `Cc1cc(C)c2c(n1)sc1c(=O)n(CC(=O)c3ccccc3)cnc12`, the EC50 is 1.55 µM.

On to `COCCOC(=O)c1c(C)nc(SCC(=O)Nc2ccc(C)cc2)c(C#N)c1-c1ccco1`, for which the EC50 is 6.68 µM.

Turning to `CC1(C)Cc2c(cnn2-c2ccccc2)C(NC(=O)CCCN2CCCC2=O)C1` (centres undefined), the EC50 was > 15 µM (inactive).

With `Cc1cccc(C)c1OCC(O)CN1CCC(CN2C(=O)c3cccc4cccc(c34)C2=O)CC1` (centres undefined), the half-maximal effective concentration (EC50) is 7.35 µM.

On to `CC(C)(C)c1cc(NCCCn2ccnc2)n2ncc(-c3ccc(Cl)cc3)c2n1`, for which the EC50 was 2.38 µM.

On to `COc1cc(/C=N/NC(=O)c2nnn(-c3nonc3N)c2C(C)C)ccc1OCc1ccc(F)cc1`, for which the concentration for a half-maximal effect (EC50) was 11.3 µM.

Turning to `FC(F)(F)c1ccc(C2[C@H]3CN(Cc4cccnc4)[C@H](c4ccccc4)C34CC2(c2cccnc2)C4)cc1` (some centres undefined), the EC50 was 5.15 µM.

Take `CCOc1cc(-c2cc(-c3ccc(NC(C)=O)cc3)nc(N)c2C#N)ccc1O`: the concentration giving a half-maximal response (EC50) was 0.919 µM.

Consider `CCOP(=O)(Cc1ccc(C(=O)CC)o1)OCC`, for which the EC50 was > 15 µM (inactive).

Turning to `CCCCCCCCCCn1c2c(c(=N)c3c1CCC3)CCC2`, the EC50 is 9.26 µM.

With `COc1ccc2c(c1)C(=NNc1ccc(C(=O)O)cc1)c1cc(OC)ccc1-2`, the EC50 was 4.68 µM.

For `Nc1c(Cl)cc(C2=NCCn3c2c2ccc([N+](=O)[O-])cc2[n+]3[O-])cc1Cl`, the EC50 was 2.44 µM.

Turning to `Cc1cc(NC(=S)N(Cc2ccc(Cl)cc2)Cc2ccc(C(=O)O)cc2)ccc1Cl`, the EC50 was 6.93 µM.

For the compound `O=C(NC(=S)N1CCN(c2ccc(F)cc2)CC1)C12CC3CC(CC(C3)C1)C2`, the EC50 is 11.1 µM.

With `CCOC(=O)C1=NN(C(=O)c2ccc(OC)cc2)C(O)(c2ccc(Cl)cc2)C1` (centres undefined), the EC50 was 6 µM.

`COc1ccc(C(=O)NC(=S)NNC(=O)c2ccccc2C)cc1`: the EC50 is 1.49 µM.

As for `COc1cccc(C(=O)NC(=S)Nc2ccccc2N2CCCCC2)c1`, the EC50 was > 15 µM (inactive).

As to `Cc1cccc2sc(NNC(=O)c3ccc(S(=O)(=O)N4CC(C)CC(C)C4)cc3)nc12` (centres undefined), the EC50 is 0.212 µM.

Take `CCOC(=O)c1cccc(N2C(N)=NC(N)=NC2(C)C)c1`: the EC50 was 0.109 µM.

Consider `C[C@@H]1CC[C@@]2(OC1)O[C@H]1C[C@H]3[C@@H]4CC=C5C[C@@H](O)[C@H](O)C[C@]5(C)C4CC[C@]3(C)[C@H]1[C@@H]2C` (some centres undefined), for which the EC50 was 4.12 µM.

For `O=C(CNC(=O)c1ccc2c(c1)OCO2)N/N=C/c1cc(Br)ccc1O`, the EC50 is 2.38 µM.

With `COc1ccc(-c2cn[nH]c2-c2ccc(OCc3ccccc3)cc2O)cc1`, the EC50 is 2.38 µM.

In the case of `Cc1cccc(CSc2nc(N)c(C#N)c(-c3cccs3)c2C#N)c1`, the EC50 is 4.77 µM.

In the case of `COc1ccc(Cl)cc1NC(=O)CN1CCC(n2nnc3cc(C)ccc32)CC1`, the EC50 was 10.8 µM.

With `CCS(=O)(=O)N1Cc2ccccc2CC1C(=O)Nc1nnc(SCc2ccc(F)cc2)s1` (centres undefined), the concentration for a half-maximal effect (EC50) is 2.35 µM.

As for `COc1ccc(N2CCN(C(=O)c3cc(C)oc3C)CC2)cc1`, the EC50 was > 15 µM (inactive).
